# Measurements: patent US20080207725A1, “Phenyl-Pyrazole Derivatives as Non-Steroidal Glucocorticoid Receptor Ligands” (Glaxo Group Limited, a corporation, priority 2005, published 2008)
# Test system: NFkB activity
# Assay: Glucocorticoid mediated transrepression of NFkB activity (A549 ELAM promoter SPAP reporter, TNFα stimulated)
# Assay type: cell-based
# Conditions: Human A549 lung epithelial cells, 3 ng/ml human recombinant TNFα, 16 hours; read-out: pEC50, transrepression of NFkB activity (converted)
# Excerpt: Human A549 lung epithelial cells were engineered to contain a secreted placental alkaline phosphatase gene under the control of the distal region of the NFkB dependent ELAM promoter as previously described in Ray, K. P., Farrow, S., Daly, M., Talabot, F. and Searle, N. “Induction of the E-selectin promoter by interleukin 1 and tumour necrosis factor alpha, and inhibition by glucocorticoids” Biochemical Journal (1997) 328: 707-15.
# Compounds were solvated and diluted in DMSO, and transferred directly into assay plates such that the final concentration of DMSO was 0.7%. Following the addition of cells (40K per well), plates were incubated for 1 hour prior to the addition of 3 ng/ml human recombinant TNFα. Following continued incubation for 16 hours, alkaline phosphatase activity was determined by measuring the change in optical density at 405 nm with time following the addition of 0.7 volumes of assay buffer (1 mg/ml p-nitrophenylphosphate dissolved in 1M diethanolamine, 0.28M NaCl, 0.5 mM MgCl2). Dose response curves were constructed from which EC50 values were estimated.
smiles,measurement,value
"CC(C)(C[C@@](O)(CNC(=O)c1cnn(-c2ccccc2)c1N)C(F)(F)F)c1cccc2c1OCC2 [Example 1, (2R)-5-Amino-N-[4-(2,3-dihydro-1-benzofuran-7-yl)-2-hydroxy-4-methyl-2-(trifluoromethyl)pentyl]-1-phenyl-1H-pyrazole-4-carboxamide]",EC50,< 3.16 nM
"COc1ccc(F)cc1C(C)(C)C[C@@](O)(CNC(=O)c1cnn(-c2ccc(F)cc2)c1N)C(F)(F)F [Example 2, (2R)-5-Amino-N-[4-[5-fluoro-2-(methyloxy)phenyl]-2-hydroxy-4-methyl-2-(trifluoromethyl)pentyl]-1-(4-fluorophenyl)-1H-pyrazole-4-carboxamide]",EC50,< 3.16 nM
"COc1ccc(F)cc1C(C)(C)C[C@@](O)(CNC(=O)c1cnn(-c2ccccc2F)c1N)C(F)(F)F [Example 3, (2R)-5-Amino-N-[4-[5-fluoro-2-(methyloxy)phenyl]-2-hydroxy-4-methyl-2-(trifluoromethyl)pentyl]-1-(2-fluorophenyl)-1H-pyrazole-4-carboxamide]",EC50,< 3.16 nM
"COc1ccc(F)cc1C(C)(C)C[C@@](O)(CNC(=O)c1cnn(-c2ccc(F)cc2F)c1N)C(F)(F)F [Example 4, (2R)-5-Amino-1-(2,4-difluorophenyl)-N-[4-[5-fluoro-2-(methyloxy)phenyl]-2-hydroxy-4-methyl-2-(trifluoromethyl)pentyl]-1H-pyrazole-4-carboxamide]",EC50,< 3.16 nM
"COc1ccc(F)cc1C(C)(C)C[C@@](O)(CNC(=O)c1cnn(-c2ccc(Cl)cc2)c1N)C(F)(F)F [Example 5, (2R)-5-Amino-1-(4-chlorophenyl)-N-[4-[5-fluoro-2-(methyloxy)phenyl]-2-hydroxy-4-methyl-2-(trifluoromethyl)pentyl]-1H-pyrazole-4-carboxamide]",EC50,< 3.16 nM
"COc1ccc(F)cc1C(C)(C)C[C@@](O)(CNC(=O)c1cnn(-c2ccccc2)c1N)C(F)(F)F [Example 6, (2R)-5-Amino-N-[4-[5-fluoro-2-(methyloxy)phenyl]-2-hydroxy-4-methyl-2-(trifluoromethyl)pentyl]-1-phenyl-1H-pyrazole-4-carboxamide]",EC50,< 3.16 nM
"CC(C)(C[C@@](O)(CNC(=O)c1cnn(-c2ccc(F)cc2)c1N)C(F)(F)F)c1cc(F)ccc1O [Example 7, (2R)-5-Amino-N-[4-(5-fluoro-2-hydroxyphenyl)-2-hydroxy-4-methyl-2-(trifluoromethyl)pentyl]-1-(4-fluorophenyl)-1H-pyrazole-4-carboxamide]",EC50,< 3.16 nM
"CC(C)(C[C@@](O)(CNC(=O)c1cnn(-c2ccccc2F)c1N)C(F)(F)F)c1cc(F)ccc1O [Example 8, (2R)-5-Amino-N-[4-(5-fluoro-2-hydroxyphenyl)-2-hydroxy-4-methyl-2-(trifluoromethyl)pentyl]-1-(2-fluorophenyl)-1H-pyrazole-4-carboxamide]",EC50,< 3.16 nM
"CC(C)(C[C@@](O)(CNC(=O)c1cnn(-c2ccc(F)cc2F)c1N)C(F)(F)F)c1cc(F)ccc1O [Example 9, (2R)-5-Amino-1-(2,4-difluorophenyl)-N-[4-(5-fluoro-2-hydroxyphenyl)-2-hydroxy-4-methyl-2-(trifluoromethyl)pentyl]-1H-pyrazole-4-carboxamide]",EC50,< 3.16 nM
"CC(C)(C[C@@](O)(CNC(=O)c1cnn(-c2ccc(Cl)cc2)c1N)C(F)(F)F)c1cc(F)ccc1O [Example 10, (2R)-5-Amino-1-(4-chlorophenyl)-N-[4-(5-fluoro-2-hydroxyphenyl)-2-hydroxy-4-methyl-2-(trifluoromethyl)pentyl]-1H-pyrazole-4-carboxamide]",EC50,< 3.16 nM
"CC(C)(C[C@@](O)(CNC(=O)c1cnn(-c2ccccc2)c1N)C(F)(F)F)c1cc(F)ccc1O [Example 11, (2R)-5-Amino-N-[4-(5-fluoro-2-hydroxyphenyl)-2-hydroxy-4-methyl-2-(trifluoromethyl)pentyl]-1-phenyl-1H-pyrazole-4-carboxamide]",EC50,< 3.16 nM
"CC(C)(C[C@@](O)(CNC(=O)c1cnn(-c2ccccc2F)c1N)C(F)(F)F)c1cccc2c1OCC2 [Example 12, (2R)-5-Amino-N-[4-(2,3-dihydro-1-benzofuran-7-yl)-2-hydroxy-4-methyl-2-(trifluoromethyl)pentyl]-1-(2-fluorophenyl)-1H-pyrazole-4-carboxamide]",EC50,< 3.16 nM
"CC(C)(C[C@@](O)(CNC(=O)c1cnn(-c2ccc(F)cc2)c1N)C(F)(F)F)c1cccc2c1OCC2 [Example 13, (2R)-5-Amino-N-[4-(2,3-dihydro-1-benzofuran-7-yl)-2-hydroxy-4-methyl-2-(trifluoromethyl)pentyl]-1-(4-fluorophenyl)-1H-pyrazole-4-carboxamide]",EC50,< 3.16 nM
"CC(C)(C[C@@](O)(CNC(=O)c1cnn(-c2ccc(F)cc2F)c1N)C(F)(F)F)c1cccc2c1OCC2 [Example 14, (2R)-5-Amino-1-(2,4-difluorophenyl)-N-[4-(2,3-dihydro-1-benzofuran-7-yl)-2-hydroxy-4-methyl-2-(trifluoromethyl)pentyl]-1H-pyrazole-4-carboxamide]",EC50,< 3.16 nM
"CC(C)(C[C@@](O)(CNC(=O)c1cnn(-c2ccc(Cl)cc2)c1N)C(F)(F)F)c1cccc2c1OCC2 [Example 15, (2R)-5-Amino-1-(4-chlorophenyl)-N-[4-(2,3-dihydro-1-benzofuran-7-yl)-2-hydroxy-4-methyl-2-(trifluoromethyl)Pentyl]-1H-pyrazole-4-carboxamide]",EC50,< 3.16 nM
